Consider 23 compounds from patent publication US20230348424A1, “HETEROCYCLIC COMPOUNDS AND METHODS OF USE” (Schrödinger, Inc., priority 2022, published 2023).

The assay concerns the target SOS1:KRAS (G12C) interaction (Homo sapiens (Human), UniProt Q07889). Briefly: SOS1 KRas(G12C) FRET Assay. Format: binding. Conditions: 0.5 nM His10-SOS1 (res. 564-1049), 2.5 nM GST-KRAS G12C (res. 1-169), 2 hrs at RT. An outline of the steps:
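GST-KRAS G12C (res. 1-169) at 2.5 nM and His10-SOS1 (res. 564-1049) at 0.5 nM, final, in PBS with 0.1% BSA, 5 mM MgCl2, 100 mM KF, 5 mM DTT and 0.5% DMSO. After 2 h at RT, FRET read at 665/615 nm and normalized to DMSO and no-SOS1 controls. IC50 by non-linear regression.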

Molecules are shown by their SMILES. pIC50: −log10 of the molar value.

Sequence of SOS1:KRAS (G12C) interaction (Q07889 564-1049, stated change not applied): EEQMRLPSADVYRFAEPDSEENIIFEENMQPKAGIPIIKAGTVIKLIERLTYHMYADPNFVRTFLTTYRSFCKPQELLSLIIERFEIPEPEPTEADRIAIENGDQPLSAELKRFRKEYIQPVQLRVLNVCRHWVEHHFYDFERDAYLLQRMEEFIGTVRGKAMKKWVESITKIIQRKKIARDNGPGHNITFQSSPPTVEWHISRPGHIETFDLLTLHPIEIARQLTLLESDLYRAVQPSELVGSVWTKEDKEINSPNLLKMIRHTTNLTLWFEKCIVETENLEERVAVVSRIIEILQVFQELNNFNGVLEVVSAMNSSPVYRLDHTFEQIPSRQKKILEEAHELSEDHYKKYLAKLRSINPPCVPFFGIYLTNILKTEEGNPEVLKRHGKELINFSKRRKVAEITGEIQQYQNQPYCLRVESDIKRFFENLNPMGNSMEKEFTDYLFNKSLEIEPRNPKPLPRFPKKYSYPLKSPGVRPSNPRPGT

`C[C@@H](NC(=O)c1cn(C2(C(F)F)CC2)c(=O)cc1N[C@H]1CN2CCC1(F)CC2)c1cccc(C(F)F)c1F` [Example 186, N-((R)-1-(3-(difluoromethyl)-2-fluorophenyl)ethyl)-1-(1-(difluoromethyl)cyclopropyl)-4-(((S)-4-fluoroquinuclidin-3-yl)amino)-6-oxo-1,6-dihydropyridine-3-carboxamide] showed a pIC50 of 7.56.

In turn, `C[C@@H](NC(=O)c1cn(C2(C(F)F)CC2)c(=O)cc1N[C@@H]1CN2CCC1(F)CC2)c1cccc(C(F)F)c1F` [Example 187, N-((R)-1-(3-(difluoromethyl)-2-fluorophenyl)ethyl)-1-(1-(difluoromethyl)cyclopropyl)-4-(((R)-4-fluoroquinuclidin-3-yl)amino)-6-oxo-1,6-dihydropyridine-3-carboxamide] showed a pIC50 of 7.65.

For `C[C@@H](NC(=O)c1cn(C2(C(F)F)CC2)c(=O)cc1NC[C@@H]1CCCN1C)c1cccc(C(F)F)c1F` [Example 188, N-((R)-1-(3-(difluoromethyl)-2-fluorophenyl)ethyl)-1-(1-(difluoromethyl)cyclopropyl)-4-((((S)-1-methylpyrrolidin-2-yl)methyl)amino)-6-oxo-1,6-dihydropyridine-3-carboxamide], the pIC50 is 7.38.

`C[C@@H](NC(=O)c1cn(C23CC(C2)C3)c(=O)cc1NC12CC(N)(C1)C2)c1cccc(C(F)F)c1F` [Example 189, (R)-4-((3-aminobicyclo[1.1.1]pentan-1-yl)amino)-1-(bicyclo[1.1.1]pentan-1-yl)-N-(1-(3-(difluoromethyl)-2-fluorophenyl)ethyl)-6-oxo-1,6-dihydropyridine-3-carboxamide] showed a negative logarithm of the IC50 (pIC50) of 7.79.

`C[C@@H](NC(=O)c1cn(C23CC(C2)C3)c(=O)cc1N)c1cccc(C(F)F)c1F` [Example 190, (R)-4-amino-1-(bicyclo[1.1.1]pentan-1-yl)-N-(1-(3-(difluoromethyl)-2-fluorophenyl)ethyl)-6-oxo-1,6-dihydropyridine-3-carboxamide] had a negative logarithm of the IC50 (pIC50) of 6.50.

`CC(Nc1cc(=O)n(C2(C(F)F)CC2)cc1C(=O)N[C@H](C)c1cccc(C(F)F)c1F)C1(CO)CC1` (stereo partly drawn) [Example 191, N-((R)-1-(3-(difluoromethyl)-2-fluorophenyl)ethyl)-1-(1-(difluoromethyl)cyclopropyl)-4-((1-(1-(hydroxymethyl)cyclopropyl)ethyl)amino)-6-oxo-1,6-dihydropyridine-3-carboxamide] showed a pIC50 of 6.85.

As for `C[C@@H](NC(=O)c1cn(C23COC(C2)C3)c(=O)cc1N[C@H]1[C@@H]2CN(C)C[C@@H]21)c1cccc(C(F)F)c1F` [Example 192], the pIC50 is 7.89.

As for `C[C@@H](NC(=O)c1cn(C23CC(C2)C3)c(=O)cc1N[C@H]1[C@@H]2CN(C)C[C@@H]21)c1cccc(C(F)(F)F)c1F` [Example 205, 1-(bicyclo[1.1.1]pentan-1-yl)-N-((R)-1-(2-fluoro-3-(trifluoromethyl)phenyl)ethyl)-4-(((1R,5S,6s)-3-methyl-3-azabicyclo[3.1.0]hexan-6-yl)amino)-6-oxo-1,6-dihydropyridine-3-carboxamide], the negative-log IC50 (pIC50) is 7.58.

As to `C[C@@H](NC(=O)c1cn(C2C(F)(F)C23CC3)c(=O)cc1N[C@H]1[C@@H]2CN(C)C[C@@H]21)c1cccc(C(F)F)c1F` (stereo partly drawn) [Example 206, N-((R)-1-(3-(difluoromethyl)-2-fluorophenyl)ethyl)-1-(2,2-difluorospiro[2.2]pentan-1-yl)-4-(((1R,5S,6s)-3-methyl-3-azabicyclo[3.1.0]hexan-6-yl)amino)-6-oxo-1,6-dihydropyridine-3-carboxamide], the negative-log IC50 (pIC50) is 6.86.

As for `C[C@@H](NC(=O)c1cn(C2CCC2)c(=O)cc1N[C@H]1[C@@H]2CN(C)C[C@@H]21)c1cccc(C(F)(F)F)c1F` [Example 207, 1-cyclobutyl-N-((R)-1-(2-fluoro-3-(trifluoromethyl)phenyl)ethyl)-4-(((1R,5S,6s)-3-methyl-3-azabicyclo[3.1.0]hexan-6-yl)amino)-6-oxo-1,6-dihydropyridine-3-carboxamide], the pIC50 was 8.03.

`C[C@@H](NC(=O)c1cn(C23CC(C2)C3)c(=O)cc1N[C@@H]1[C@@H]2C[C@H]1CN(C)C2)c1cccc(C(F)F)c1F` [Example 208, 1-(bicyclo[1.1.1]pentan-1-yl)-N-((R)-1-(3-(difluoromethyl)-2-fluorophenyl)ethyl)-4-(((1R,5S,6s)-3-methyl-3-azabicyclo[3.1.1]heptan-6-yl)amino)-6-oxo-1,6-dihydropyridine-3-carboxamide] showed a negative logarithm of the IC50 (pIC50) of 7.89.

In turn, `C[C@@H](NC(=O)c1cn(C23CC(C2)C3)c(=O)cc1N[C@H]1[C@@H]2C[C@H]1CN(C)C2)c1cccc(C(F)F)c1F` [Example 209, 1-(bicyclo[1.1.1]pentan-1-yl)-N-((R)-1-(3-(difluoromethyl)-2-fluorophenyl)ethyl)-4-(((1R,5S,6r)-3-methyl-3-azabicyclo[3.1.1]heptan-6-yl)amino)-6-oxo-1,6-dihydropyridine-3-carboxamide] showed a pIC50 of 7.20.

On to `C[C@@H](NC(=O)c1cn([C@H]2CCC2(F)F)c(=O)cc1N[C@H]1[C@@H]2CC[C@H]1CN(C)C2)c1cccc(C(F)F)c1F` [Example 210, 1-((S)-2,2-difluorocyclobutyl)-N-((R)-1-(3-(difluoromethyl)-2-fluorophenyl)ethyl)-4-(((1R,5S,8r)-3-methyl-3-azabicyclo[3.2.1]octan-8-yl)amino)-6-oxo-1,6-dihydropyridine-3-carboxamide], for which the pIC50 was 8.37.

In the case of `C[C@@H](NC(=O)c1cn([C@H]2CCC2(F)F)c(=O)cc1N[C@@H]1[C@@H]2CC[C@H]1CN(C)C2)c1cccc(C(F)F)c1F` [Example 211, 1-((S)-2,2-difluorocyclobutyl)-N-((R)-1-(3-(difluoromethyl)-2-fluorophenyl)ethyl)-4-(((1R,5S,8s)-3-methyl-3-azabicyclo[3.2.1]octan-8-yl)amino)-6-oxo-1,6-dihydropyridine-3-carboxamide], the negative logarithm of the IC50 (pIC50) was 7.53.

For `C[C@@H](NC(=O)c1cn([C@@H]2CCC2(F)F)c(=O)cc1N[C@@H]1[C@@H]2CC[C@H]1CN(C)C2)c1cccc(C(F)F)c1F` [Example 212, 1-((R)-2,2-difluorocyclobutyl)-N-((R)-1-(3-(difluoromethyl)-2-fluorophenyl)ethyl)-4-(((1R,5S,8s)-3-methyl-3-azabicyclo[3.2.1]octan-8-yl)amino)-6-oxo-1,6-dihydropyridine-3-carboxamide], the negative-log IC50 (pIC50) was 7.42.

Turning to `C[C@@H](NC(=O)c1cn([C@@H]2CCC2(F)F)c(=O)cc1N[C@H]1[C@@H]2CC[C@H]1CN(C)C2)c1cccc(C(F)F)c1F` [Example 213, 1-((R)-2,2-difluorocyclobutyl)-N-((R)-1-(3-(difluoromethyl)-2-fluorophenyl)ethyl)-4-(((1R,5S,8r)-3-methyl-3-azabicyclo[3.2.1]octan-8-yl)amino)-6-oxo-1,6-dihydropyridine-3-carboxamide], the pIC50 is 6.83.

Compound `C[C@@H](NC(=O)c1cn(C23CC(C2)C3)c(=O)cc1N[C@@H]1C[C@@H]2CN(C)C[C@@H]2C1)c1cccc(C(F)F)c1F` [Example 216, 1-(bicyclo[1.1.1]pentan-1-yl)-N-((R)-1-(3-(difluoromethyl)-2-fluorophenyl)ethyl)-4-(((3aR,5r,6aS)-2-methyloctahydrocyclopenta[c]pyrrol-5-yl)amino)-6-oxo-1,6-dihydropyridine-3-carboxamide] showed a pIC50 of 7.72.

In turn, `C[C@@H](NC(=O)c1cn(C23CC(C2)C3)c(=O)cc1NC1CCN(C)CC1)c1cccc(C(F)F)c1F` [Example 217, (R)-1-(bicyclo[1.1.1]pentan-1-yl)-N-(1-(3-(difluoromethyl)-2-fluorophenyl)ethyl)-4-((1-methylpiperidin-4-yl)amino)-6-oxo-1,6-dihydropyridine-3-carboxamide] had a pIC50 of 8.13.

`C[C@@H](NC(=O)c1cn(C23COC(C)(C2)C3)c(=O)cc1NC1CCN(C)CC1)c1cccc(C(F)F)c1F` [Example 220, (R)-N-(1-(3-(difluoromethyl)-2-fluorophenyl)ethyl)-1-(1-methyl-2-oxabicyclo[2.1. 1]hexan-4-yl)-4-((1-methylpiperidin-4-yl)amino)-6-oxo-1,6-dihydropyridine-3-carboxamide] showed a negative-log IC50 (pIC50) of 7.57.

For `C[C@@H](NC(=O)c1cn(C2(C(F)F)CC2)c(=O)cc1NC[C@H]1CCCN1C)c1cccc(C(F)F)c1F` [Example 221, N-((R)-1-(3-(difluoromethyl)-2-fluorophenyl)ethyl)-1-(1-(difluoromethyl)cyclopropyl)-4-((((R)-1-methylpyrrolidin-2-yl)methyl)amino)-6-oxo-1,6-dihydropyridine-3-carboxamide], the pIC50 is 7.42.

As for `C[C@@H](NC(=O)c1cn(C2(C)CC(F)(F)C2)c(=O)cc1NC1CCN(C)CC1)c1cccc(C(F)F)c1F` [Example 222, (R)-1-(3,3-difluoro-1-methylcyclobutyl)-N-(1-(3-(difluoromethyl)-2-fluorophenyl)ethyl)-4-((1-methylpiperidin-4-yl)amino)-6-oxo-1,6-dihydropyridine-3-carboxamide], the pIC50 was 7.56.

`C[C@@H](NC(=O)c1cn(C2(C(F)(F)F)CCCC2)c(=O)cc1NC1CCN(C)CC1)c1cccc(C(F)F)c1F` [Example 223, (R)-N-(1-(3-(difluoromethyl)-2-fluorophenyl)ethyl)-4-((1-methylpiperidin-4-yl)amino)-6-oxo-1-(1-(trifluoromethyl)cyclopentyl)-1,6-dihydropyridine-3-carboxamide] showed a negative logarithm of the IC50 (pIC50) of 7.85.

`C[C@@H](NC(=O)c1cn(C2(C)CC(F)(F)C2)c(=O)cc1N[C@H]1[C@@H]2CN(C)C[C@@H]21)c1cccc(C(F)F)c1F` [Example 224, 1-(3,3-difluoro-1-methylcyclobutyl)-N-((R)-1-(3-(difluoromethyl)-2-fluorophenyl)ethyl)-4-(((1R,5S,6s)-3-methyl-3-azabicyclo[3.1.0]hexan-6-yl)amino)-6-oxo-1,6-dihydropyridine-3-carboxamide] had a pIC50 of 7.33.
